Source: patent US12116358B2, “Substituted indoles and methods of use thereof” (EPIZYME, INC., priority 2018, dated 2024)
Like-named read-outs stand apart in the source and are kept apart here.

Columns and labels:
SETD2(1434-1711) = target: T1, SETD2(1434-1711) (Homo sapiens, UniProt Q9BYW2); experiment: SETD2 (1434-1711) assay; assay type: biochemical; details: read-out: SETD2 (1434-1711)
T1 construct: SETD2 (1434-1711) Assay; catalogue N/A
T1 sequence (Q9BYW2 1434-1711): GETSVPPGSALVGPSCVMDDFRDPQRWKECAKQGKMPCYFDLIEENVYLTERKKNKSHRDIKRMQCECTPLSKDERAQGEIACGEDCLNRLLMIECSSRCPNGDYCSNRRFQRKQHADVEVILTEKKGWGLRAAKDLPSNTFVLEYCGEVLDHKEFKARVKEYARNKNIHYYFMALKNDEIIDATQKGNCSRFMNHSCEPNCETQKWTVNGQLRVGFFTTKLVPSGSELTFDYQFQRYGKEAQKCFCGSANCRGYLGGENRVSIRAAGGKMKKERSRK

H3K36me3 in A549 cells = experiment: In-Cell Western (ICW) assay of SETD2 inhibitors (A549 assay); assay type: cell-based, human; details: A549 cells, read-out: SETD2 A549
Method: In-Cell Western (ICW) Assay of SETD2 Inhibitors (A549 Assay)
Representative Compounds of the Disclosure were tested in the A549 assay according the following protocol.
1. Reagents and Consumables:
Prepare plates with compounds. Seed A549 cells to the plates with compounds, 4,000 cells/well, 50 μl/well. Put the plates at room temperature on a non-vibrating surface for 20 minutes before placing in the incubator. Incubate the plate at 37° C. incubator with CO2 for 3 days. Remove plate from incubator and bring to room temperature. Blot media out of the plate and add 50 μL of ice cold 100% methanol. Incubate 30 minutes at room temperature. Remove methanol by aspiration. Wash 3× with PBST. Add 50 μL of Blocking Buffer+0.1% Tween 20. Incubate 1 hour. Remove Blocking Buffer, wash 3× with PBST. Add 20 μL of H3K36me3 (1:1000 dilution). […] Incubate overnight at 4° C. Wash plate 5× with PBS-T. Add 20 μL of DRAQ5 (1:1000) and IRDye 800CW Goat anti-Rabbit IgG (1:500). Incubate for 1 hour in the dark. Wash plate 5× with PBS-T. Wash plate 3× with water. Dry by blotting on paper towel, then centrifuge plate upside down on a thin layer of paper towels for 1 minute at 1000 rpm to remove excess reagent. Leave plate uncovered for ˜10 minutes out of direct light before reading. Read on Licor instrument.
4. Licor Instrument Settings:
Preset: Plate; Resolution: 84 μm; Quality: low; Focus offset: 4.0; 700 channel intensity: 2; and 800 channel intensity: 3.

Cc1ccc(F)c2cc(C(=O)Nc3cccc([C@H]4CC[C@H](N(C)C)CC4)c3)[nH]c12 [compound 68]
IC50 (SETD2(1434-1711)): 6 nM
IC50 (H3K36me3 in A549 cells): 200 nM

Cc1ccc(F)c2cc(C(=O)Nc3cc(F)cc([C@H]4CC[C@@H](N(C)C)CC4)c3)[nH]c12 [compound 69]
IC50 (SETD2(1434-1711)): 3 nM
IC50 (H3K36me3 in A549 cells): 200 nM

Cc1ccc(F)c2cc(C(=O)Nc3cc(F)cc(N4CCN(C(=O)CN(C)C)C(C)C4)c3)[nH]c12 (stereo not shown) [compound 70]
IC50 (SETD2(1434-1711)): 9 nM
IC50 (H3K36me3 in A549 cells; Homo sapiens): 200 nM

CCC1CN(c2cccc(NC(=O)c3cc4c(F)ccc(C)c4[nH]3)c2)CCN1C(C)=O (stereo not shown) [compound 71]
IC50 (SETD2(1434-1711)): 40 nM
IC50 (H3K36me3 in A549 cells): 200 nM

Cc1ccc(F)c2cc(C(=O)Nc3cccc(N4CCN(C(=O)CO)CC4)c3)[nH]c12 [compound 72]
IC50 (SETD2(1434-1711)): 30 nM
IC50 (H3K36me3 in A549 cells): 200 nM

CC(=O)N1CCC(c2cccc(NC(=O)c3cc4c(F)ccc(C)c4[nH]3)c2)C1 (stereo not shown) [compound 73]
IC50 (SETD2(1434-1711)): 40 nM
IC50 (H3K36me3 in A549 cells): 200 nM

Cc1ccc(F)c2cc(C(=O)Nc3cccc(N4CCC(N5CCOCC5)C4)c3)[nH]c12 (stereo not shown) [compound 74]
IC50 (SETD2(1434-1711)): 30 nM
IC50 (H3K36me3 in A549 cells): 200 nM

COCCC(=O)N1CCN(c2cccc(NC(=O)c3cc4c(F)ccc(C)c4[nH]3)c2)CC1 [compound 75]
IC50 (SETD2(1434-1711)): 60 nM
IC50 (H3K36me3 in A549 cells): 200 nM

CC(=O)N1CCN(c2cccc(NC(=O)c3cc4c(F)ccc(C)c4[nH]3)c2)CC1C(F)(F)F (stereo not shown) [compound 77]
IC50 (SETD2(1434-1711)): 60 nM
IC50 (H3K36me3 in A549 cells): 200 nM

CC(=O)N(C)C1CCN(c2cccc(NC(=O)c3cc4c(F)ccc(C)c4[nH]3)c2)CC1 [compound 78]
IC50 (SETD2(1434-1711)): 40 nM
IC50 (H3K36me3 in A549 cells): 200 nM

CC(=O)N1CCN(c2cc(NC(=O)c3cc4c(F)ccc(C)c4[nH]3)ccc2F)CC1 [compound 79]
IC50 (SETD2(1434-1711)): 70 nM
IC50 (H3K36me3 in A549 cells): 200 nM

COCc1nnc(-c2cccc(NC(=O)c3cc4c(F)ccc(C)c4[nH]3)c2)s1 [compound 81]
IC50 (SETD2(1434-1711)): 30 nM
IC50 (H3K36me3 in A549 cells): 200 nM

COC(=O)N1CCC2(CC1)CCN(c1cccc(NC(=O)c3cc4c(F)ccc(C)c4[nH]3)c1)C2 [compound 83]
IC50 (SETD2(1434-1711)): 20 nM
IC50 (H3K36me3 in A549 cells): 200 nM

CC(=O)N1CCN(c2cccc(NC(=O)c3cc4c(F)ccc(Br)c4[nH]3)c2)CC1 [compound 84]
IC50 (SETD2(1434-1711)): 40 nM
IC50 (H3K36me3 in A549 cells): 200 nM

Cc1ccc(F)c2cc(C(=O)Nc3cccc(N4CCC5(CCCN5)CC4)c3)[nH]c12 [compound 86]
IC50 (SETD2(1434-1711)): 5 nM
IC50 (H3K36me3 in A549 cells): 200 nM

Cc1ccc(F)c2cc(C(=O)Nc3cccc(N4CCC(C)(O)CC4)c3)[nH]c12 [compound 87]
IC50 (SETD2(1434-1711)): 100 nM
IC50 (H3K36me3 in A549 cells; Homo sapiens): 200 nM

CCN1CCN(c2cccc(NC(=O)c3cc4c(F)ccc(C)c4[nH]3)c2)CC1=O [compound 88]
IC50 (SETD2(1434-1711)): 50 nM
IC50 (H3K36me3 in A549 cells): 200 nM

Cc1ccc(F)c2cc(C(=O)Nc3cc(F)cc(C4CCN(C5CC(=O)N(C)C5)C4)c3)[nH]c12 (stereo not shown) [compound 89]
IC50 (SETD2(1434-1711)): 30 nM
IC50 (H3K36me3 in A549 cells; Homo sapiens): 200 nM

Cc1ccc(F)c2cc(C(=O)Nc3cccc([C@H]4CCN5C(=O)CC[C@H]5C4)c3)[nH]c12 [compound 90]
IC50 (SETD2(1434-1711)): 30 nM
IC50 (H3K36me3 in A549 cells): 200 nM

Cc1ccc(F)c2cc(C(=O)Nc3cc(Cl)cc(N4CCN(C)CC4)c3)[nH]c12 [compound 91]
IC50 (SETD2(1434-1711)): 10 nM
IC50 (H3K36me3 in A549 cells): 200 nM

Cc1ccc(F)c2cc(C(=O)Nc3cccc(N4CCN(C(=O)CF)CC4)c3)[nH]c12 [compound 92]
IC50 (SETD2(1434-1711)): 30 nM
IC50 (H3K36me3 in A549 cells): 200 nM

Cc1ccc(F)c2cc(C(=O)Nc3cccc(N4CCN(C(=O)C5CC5)CC4)c3)[nH]c12 [compound 93]
IC50 (SETD2(1434-1711)): 60 nM
IC50 (H3K36me3 in A549 cells): 200 nM

Cc1ccc(F)c2cc(C(=O)Nc3cccc(N4CC[C@@H](N(C)C)C4)c3)[nH]c12 [compound 94]
IC50 (SETD2(1434-1711)): 20 nM
IC50 (H3K36me3 in A549 cells): 200 nM

Cc1ccc(F)c2cc(C(=O)Nc3cccc(N4CCC5(CC4)COCCN5)c3)[nH]c12 [compound 95]
IC50 (SETD2(1434-1711)): 20 nM
IC50 (H3K36me3 in A549 cells; Homo sapiens): 200 nM

Cc1ccc(F)c2cc(C(=O)Nc3cc(F)cc([C@@H]4CCN5C(=O)CC[C@H]5C4)c3)[nH]c12 [compound 96]
IC50 (SETD2(1434-1711)): 40 nM
IC50 (H3K36me3 in A549 cells): 200 nM

Cc1ccc(F)c2cc(C(=O)Nc3cccc(N4CCC(N(C)CCF)C4)c3)[nH]c12 (stereo not shown) [compound 97]
IC50 (SETD2(1434-1711)): 40 nM
IC50 (H3K36me3 in A549 cells): 200 nM

Cc1ccc(F)c2cc(C(=O)Nc3cccc(N4CCC5(CC4)CN(C)C5)c3)[nH]c12 [compound 98]
IC50 (SETD2(1434-1711)): 9 nM
IC50 (H3K36me3 in A549 cells): 200 nM

Cc1ccc(F)c2cc(C(=O)Nc3cccc(N4CCC(N(C)C)C(C)C4)c3)[nH]c12 (stereo not shown) [compound 99]
IC50 (SETD2(1434-1711)): 30 nM
IC50 (H3K36me3 in A549 cells): 200 nM

Cc1ccc(F)c2cc(C(=O)Nc3cccc(N4CCN(C5CC5)C(=O)C4)c3)[nH]c12 [compound 100]
IC50 (SETD2(1434-1711)): 30 nM
IC50 (H3K36me3 in A549 cells): 200 nM

Cc1ccc(F)c2cc(C(=O)Nc3cccc(C4CCOCC4)c3)[nH]c12 [compound 101]
IC50 (SETD2(1434-1711)): 50 nM
IC50 (H3K36me3 in A549 cells): 200 nM

Cc1ccc(F)c2cc(C(=O)Nc3cccc(N4CC[C@H](N(C)C)C4)c3)[nH]c12 [compound 102]
IC50 (SETD2(1434-1711)): 20 nM
IC50 (H3K36me3 in A549 cells): 200 nM

Cc1ccc(F)c2cc(C(=O)Nc3cccc(N4CCC(CO)(CO)CC4)c3)[nH]c12 [compound 103]
IC50 (SETD2(1434-1711)): 30 nM
IC50 (H3K36me3 in A549 cells): 200 nM

CC(=O)N1CCCC12CCN(c1cc(F)cc(NC(=O)c3cc4c(F)ccc(C)c4[nH]3)c1)CC2 [compound 104]
IC50 (SETD2(1434-1711)): 30 nM
IC50 (H3K36me3 in A549 cells): 200 nM

Cc1ccc(F)c2cc(C(=O)Nc3cc(F)cc(N4C[C@@H]5CCN(C)[C@@H]5C4)c3)[nH]c12 [compound 105]
IC50 (SETD2(1434-1711)): 8 nM
IC50 (H3K36me3 in A549 cells): 200 nM

Cc1ccc(F)c2cc(C(=O)Nc3cc(Cl)cc([C@H]4CC[C@@H](N(C)C)CC4)c3)[nH]c12 [compound 106]
IC50 (SETD2(1434-1711)): 3 nM
IC50 (H3K36me3 in A549 cells): 200 nM

Cc1ccc(F)c2cc(C(=O)Nc3cccc(-c4nnc(CO)s4)c3)[nH]c12 [compound 107]
IC50 (SETD2(1434-1711)): 40 nM
IC50 (H3K36me3 in A549 cells): 200 nM

Cc1ccc(F)c2cc(C(=O)Nc3cccc(-c4cnco4)c3)[nH]c12 [compound 108]
IC50 (SETD2(1434-1711)): 60 nM
IC50 (H3K36me3 in A549 cells; Homo sapiens): 200 nM

COCCN1CCC2(CC1)CN(c1cccc(NC(=O)c3cc4c(F)ccc(C)c4[nH]3)c1)C2 [compound 109]
IC50 (SETD2(1434-1711)): 10 nM
IC50 (H3K36me3 in A549 cells): 200 nM

Cc1ccc(F)c2cc(C(=O)Nc3cccc(N4CCC5(CC4)CN(CC(F)(F)F)C5)c3)[nH]c12 [compound 110]
IC50 (SETD2(1434-1711)): 100 nM
IC50 (H3K36me3 in A549 cells): 200 nM

Cc1ccc(F)c2cc(C(=O)Nc3cccc(N4CC[C@H](N(C)C)[C@H](C)C4)c3)[nH]c12 [compound 111]
IC50 (SETD2(1434-1711)): 8 nM
IC50 (H3K36me3 in A549 cells): 200 nM

COC(=O)N1CCC2(CC1)CN(c1cccc(NC(=O)c3cc4c(F)ccc(C)c4[nH]3)c1)C2 [compound 112]
IC50 (SETD2(1434-1711)): 30 nM
IC50 (H3K36me3 in A549 cells): 200 nM

Cc1ccc(F)c2cc(C(=O)Nc3cc(F)cc(C4CCN5C(=O)CC[C@@H]5C4)c3)[nH]c12 (stereo partly shown) [compound 114]
IC50 (SETD2(1434-1711)): 60 nM
IC50 (H3K36me3 in A549 cells; Homo sapiens): 200 nM

Cc1ccc(F)c2cc(C(=O)Nc3cccc(-c4ccncc4)c3)[nH]c12 [compound 116]
IC50 (SETD2(1434-1711)): 40 nM
IC50 (H3K36me3 in A549 cells; Homo sapiens): 200 nM

Cc1ccc(F)c2cc(C(=O)Nc3cccc(N4CCC(CN(C)C)CC4)c3)[nH]c12 [compound 117]
IC50 (SETD2(1434-1711)): 20 nM
IC50 (H3K36me3 in A549 cells): 200 nM

Cc1ccc(F)c2cc(C(=O)Nc3cccc(N4CCCC4=O)c3)[nH]c12 [compound 118]
IC50 (SETD2(1434-1711)): 50 nM
IC50 (H3K36me3 in A549 cells; Homo sapiens): 200 nM

Cc1ccc(F)c2cc(C(=O)Nc3cccc(-c4nnc(C5CC5)o4)c3)[nH]c12 [compound 119]
IC50 (SETD2(1434-1711)): 30 nM
IC50 (H3K36me3 in A549 cells): 200 nM

Cc1ccc(F)c2cc(C(=O)Nc3cc(Cl)cc(N4CCC(N(C)C)C4)c3)[nH]c12 (stereo not shown) [compound 120]
IC50 (SETD2(1434-1711)): 6 nM
IC50 (H3K36me3 in A549 cells; Homo sapiens): 300 nM
